Several values for one entry are separate records, joined by “and”; a condition that tells them apart may be missing. Identical values can stand only once. Like-named read-outs stand apart in the source and are kept apart here.
Experiments:
[1] = system: B16 melanoma cells; assay: Tumour Cytotoxicity Model (B16 melanoma in C57 mice); assay type: in vivo, C57 black mice; parameters: Mean (standard error) of B16 tumour volume adjusted for the variation in initial volume: scale not given here; conditions: for difference in tumour volume from the Vehicle group (95% level): 0.5 mg and 1.0 mg groups; for Mean (standard error) of B16 tumour volume adjusted for the variation in initial volume: statistically modified tumour volume; for B16 Tumour Volume: individual mice
Protocol: Groups of C57 black mice were given an initiation dose of 2×10^5 B16 melanoma cells as an intradermal injection. The cells were suspended in MEM without serum. The abdomen was clipped and 100 μl of cells + MEM was injected. […] The tumours were measured with a micrometer and photographed just prior to the injection of drug (day 8-10).
The cytotoxic drugs and their fatty acid conjugates were dissolved or suspended in 4:1 soy bean oil:ethyl oleate. A 10 mg/ml or a 20 mg/ml solution of each parent drug or the fatty acid conjugate made to the same molar concentration as the parent drug was then injected into the same region as the tumour at a dose of 0.5 mg or 1 mg. The tumours were then photographed, measured and re-injected every two to three days.

[2] = system: reserpine-induced catatonia; assay: Anti-reserpine activity (reserpine-induced catatonia); conditions: for Response at 15 min.: individual mice 1 and 2
Protocol: The biological activities of L-DOPA and L-DOPA-GTP2 were tested in an animal model of Parkinsons' disease, a condition caused by low levels of the neurotransmitter dopamine in the brain. Mice were pretreated with reserpine which depletes dopamine and causes animals to become catatonic. The ability of L-DOPA and L-DOPA-GTP2 to reverse this condition was measured.
Mice were injected intraperitoneally (ip) with reserpine (5 mg/kg) and 4 hours later tested for catatonia. A mouse was judged to be catatonic if it was able to stay on a stopper of 4.5 cm diameter for 5 minutes. Catatonic animals were then injected ip with L-DOPA or L-DOPA-GTP2 suspended in Miglyol (200-400 μl/mouse) immediately before use and observed.

[3] = system: pain response on heated plate; conditions: for mean time response: standard error of each mean ±2.86
Protocol: The biological activities of Morphine (Mo) and fatty acid conjugates were tested in an antinociceptive assay using mice. Various doses and duration of pain-killing effect of the drugs were examined.
Quackenbush Strain mice (male, 5-week-old, approximately 30 g live weight) were used for the experiments. Animals were given free access to food and water prior to and during the experiment. Animals were divided into groups of 12 and individually weighed. The mean weight for each group was calculated. Mice were then placed on a metal block heated to 50° C. and the time taken for the animals to show signs of discomfort was measured (baseline response: control). Mice were then injected intraperitoneally (ip) with various doses of Morphine or Morphine-fatty acid conjugate. Morphine was made up in a H2O solution and Morphine-fatty acids were made up in an emulsion containing 10% glycerylmonooleate, 21% Miglyol, 6% ethanol, 24% Tween 80 (33%) and 39% H2O. 0.2 ml of appropriate solution was injected ip into each mouse. At different times after injection, responses on the heated plate were measured. In each experiment 3 doses of Morphine and Morphine-fatty acid and 2 time points were tested. A single mouse was used for each treatment and the entire experiment repeated at least 3 times. […] Members of the panel were asked to score mice behaviour according to the following key:
0=agitated mouse, distressed
1=showing mild discomfort
2=not agitated or uncomfortable but still alert
3=placid. docile; not at all worried.
Results from the panel were averaged.

[4] = system: UVB induced oedema; assay: UVB erythema assay (net skin fold thickness); assay type: in vivo, Skh-1 hairless albino female mice
[5] = DOPA moiety 364 mg/kg ip, 20 min
[6] = DOPA moiety 637 mg/kg ip, 20 min

CCCCCCCCCCCCCCCC(=O)OCC(CO)(COC(=O)CCCCCCCCCCCCCCC)NC(=O)CNC(=O)CC[C@H](NC(=O)c1ccc(N(C)Cc2cnc3nc(N)nc(N)c3n2)cc1)C(=O)O [MTXGTP2, Methotrexate-γ-Gly-Tris-Dipalmitate]
difference in tumour volume from the Vehicle group (95% level) [1]: significant difference
Mean (standard error) of B16 tumour volume adjusted for the variation in initial volume ([1]; 13/11/95, 0.5 mg): 2.04 (0.565)
Mean (standard error) of B16 tumour volume adjusted for the variation in initial volume ([1]; 13/11/95, 1.0 mg): 2.30 (0.536)
Mean (standard error) of B16 tumour volume adjusted for the variation in initial volume ([1]; 15/11/95, 0.5 mg): 3.37 (0.884)
Mean (standard error) of B16 tumour volume adjusted for the variation in initial volume ([1]; 15/11/95, 1.0 mg): 3.40 (0.839)
Mean (standard error) of B16 tumour volume adjusted for the variation in initial volume ([1]; 16/11/95, 0.5 mg): 3.76 (1.06)
Mean (standard error) of B16 tumour volume adjusted for the variation in initial volume ([1]; 16/11/95, 1.0 mg): 4.13 (1.01)
Mean (standard error) of B16 tumour volume adjusted for the variation in initial volume ([1]; 17/11/95, 0.5 mg): 4.03 (1.28)
Mean (standard error) of B16 tumour volume adjusted for the variation in initial volume ([1]; 17/11/95, 1.0 mg): 4.89 (1.22)
B16 Tumour Volume ([1]; Day 1, drug dose 0.5 mg injected at tumour region): 0.5 mm^2 (2×) and 2.7 mm^2 and 16.6 mm^2
B16 Tumour Volume ([1]; Day 1, drug dose 1.0 mg): 0.1 mm^2 and 8.2 mm^2 (2×) and 10.8 mm^2
B16 Tumour Volume ([1]; Day 3, drug dose 0.5 mg): 0 mm^2 (3×) and 16.6 mm^2
B16 Tumour Volume ([1]; Day 3, drug dose 1.0 mg): 0.1 mm^2 and 10.8 mm^2 and 0 mm^2 and 30.4 mm^2
B16 Tumour Volume ([1]; Day 5, drug dose 0.5 mg): 0 mm^2 (2×) and 11.8 mm^2 and 64.5 mm^2
B16 Tumour Volume ([1]; Day 5, drug dose 1.0 mg): 0.5 mm^2 and 21.8 mm^2 and 0 mm^2 and 142.5 mm^2
B16 Tumour Volume ([1]; Day 6, drug dose 0.5 mg): 0 mm^2 (2×) and 19.8 mm^2 and 77.6 mm^2
B16 Tumour Volume ([1]; Day 6, drug dose 1.0 mg): 0.5 mm^2 and 46.8 mm^2 and 0 mm^2 and 261.8 mm^2
B16 Tumour Volume ([1]; Day 7, drug dose 0.5 mg): 0 mm^2 (2×) and 26 mm^2 and 113 mm^2
B16 Tumour Volume ([1]; Day 7, drug dose 1.0 mg): 14 mm^2 and 50 mm^2 and 0 mm^2 and 379 mm^2

N[C@@H](Cc1ccc(O)c(O)c1)C(=O)O [L-DOPA, 3-(3,4-dihydroxyphenyl)-alanine, reference compound]
Anti-Reserpine Activity (response) [2, 5]: +
Anti-Reserpine Activity (response) [2, 6]: +
Response at 15 min. ([2]; L-DOPA moiety 9.1 mg/kg ip): −
Response at 15 min. ([2]; L-DOPA moiety 91 mg/kg ip): − and +
Response at 15 min. ([2]; L-DOPA moiety 364 mg/kg ip): +
Response at 15 min. ([2]; L-DOPA moiety 637 mg/kg ip): +
Response at 15 min. ([2]; L-DOPA moiety 910 mg/kg ip): +
doses at which all catatonic animals became active ([2]; ip, Experiment 1): ≥ 364 mg/kg
toxic effects observed in treated catatonic mice ([2]; mouse, in vivo, ip): toxic effects of L-DOPA such as rearing, salivating and jumping

CCCCCCCCCCCCCCCC(=O)OCC(COC(=O)CCCCCCCCCCCCCCC)(COC(=O)CCCCCCCCCCCCCCC)NC(=O)CNC(=O)CCC(=O)Oc1ccc2c3c1O[C@H]1[C@@H](O)C=C[C@H]4[C@@H](C2)N(C)CC[C@@]341 [Mo-Suc-GTP3, Morphine-Suc-Gly-Tris Tripalmitate]
mean time response ([3]; 1 mg Mo/kg ip, 4 hr): 23.5 s
mean time response ([3]; 1 mg Mo/kg ip, 6 hr): 27.8 s
mean time response ([3]; 10 mg Mo/kg ip, 4 hr): 29.8 s
mean time response ([3]; 10 mg Mo/kg ip, 6 hr): 29.0 s
duration of pain-killing effect compared with morphine ([3]; ip injection): longer lasting effect than morphine

CCCCCCCCCCCCCCCC(=O)OCC(COC(=O)CCCCCCCCCCCCCCC)(COC(=O)CCCCCCCCCCCCCCC)NC(=O)CNC(=O)CCC(=O)OCC(=O)C1(O)CCC2C3CCC4=CC(=O)CCC4(C)C3C(O)CC21C (stereo not drawn) [HC-Suc-GTP3, Hydrocortisone-Suc-Gly-Tris-Tripalmitate]
Mean Net Skin Fold Thickness ([4]; 0.5 mg/mouse topical in ethanol, applied Day −5 (5 days prior to UV exposure), 2MED UVB, measured 24 h): 93.8 ± 9.8 10^−2 mm
Mean Net Skin Fold Thickness ([4]; 0.5 mg/mouse topical, applied Day 0 after UV exposure, 2MED UVB): 55.8 ± 11.7 10^−2 mm
Mean Net Skin Fold Thickness ([4]; 0.5 mg/mouse topical, applied Day −3 (3 days prior to UV exposure), 2MED UVB): 86.7 ± 9.4 10^−2 mm
activity equivalent to % of the hydrocortisone activity in protecting against UVB induced oedema ([4]; 0.5 mg/mouse, applied at Day 0, post UVB exposure): approximately 50%
Mean Net Skin Fold Thickness ([4]; 1 mg/mouse (1% w/v) topical, applied Day 0 after UV exposure): 27.9 ± 7.5
Mean Net Skin Fold Thickness ([4]; 1 mg/mouse (1% w/v) topical, applied Day −3): 62.9 ± 4.0
Mean Net Skin Fold Thickness ([4]; 1 mg/mouse (1% w/v) topical, applied Day −5): 103.8 ± 3.0

CN(Cc1cnc2nc(N)nc(N)c2n1)c1ccc(C(=O)N[C@@H](CCC(=O)O)C(=O)O)cc1 [Methotrexate, reference compound]
difference in tumour volume from the Vehicle group (95% level) [1]: no significant difference
Mean (standard error) of B16 tumour volume adjusted for the variation in initial volume ([1]; 13/11/95, 0.5 mg): 3.58 (0.610)
Mean (standard error) of B16 tumour volume adjusted for the variation in initial volume ([1]; 15/11/95, 0.5 mg): 5.47 (0.955)
Mean (standard error) of B16 tumour volume adjusted for the variation in initial volume ([1]; 16/11/95, 0.5 mg): 6.07 (1.15)
Mean (standard error) of B16 tumour volume adjusted for the variation in initial volume ([1]; 17/11/95, 0.5 mg): 7.24 (1.38)
B16 Tumour Volume ([1]; Day 1, drug dose 0.5 mg injected at tumour region, listed as MTX): 0.5 mm^2 and 3.8 mm^2 and 14.1 mm^2 and 26 mm^2
B16 Tumour Volume ([1]; Day 3, drug dose 0.5 mg, listed as MTX): 13.6 mm^2 and 4.2 mm^2 and 30.4 mm^2 and 86 mm^2
B16 Tumour Volume ([1]; Day 5, drug dose 0.5 mg, listed as MTX): 73.5 mm^2 and 14.1 mm^2 and 86.0 mm^2 and 219.4 mm^2
B16 Tumour Volume ([1]; Day 6, drug dose 0.5 mg, listed as MTX): 125.1 mm^2 and 14.1 mm^2 and 215.0 mm^2 and 266.5 mm^2
B16 Tumour Volume ([1]; Day 7, drug dose 0.5 mg, listed as MTX): 190 mm^2 and 21 mm^2 and 234 mm^2 and 515 mm^2

CCCCCCCCCCCCCCCC(=O)OCC(CO)(COC(=O)CCCCCCCCCCCCCCC)NC(=O)CNC(=O)[C@@H](N)Cc1ccc(O)c(O)c1 [L-DOPA-GTP2, DOPA-Gly-Tris-Dipalmitate]
time after administration at which signs of recovery showed ([2]; 364 mg DOPA/kg ip): 7 h
time after administration at which signs of recovery showed ([2]; 637 mg DOPA/kg ip): 5 h
recovery from catatonia at low doses ([2]; 9.1 and 91 mg DOPA/kg ip): did not recover
Anti-Reserpine Activity (response) ([2]; DOPA moiety 9.1 mg/kg ip, 20 min): − −
Anti-Reserpine Activity (response) ([2]; DOPA moiety 9.1 mg/kg ip, 2 hr): − −
Anti-Reserpine Activity (response) ([2]; DOPA moiety 9.1 mg/kg ip, 5 hr): − −
Anti-Reserpine Activity (response) ([2]; DOPA moiety 9.1 mg/kg ip, 6 hr): − −
Anti-Reserpine Activity (response) ([2]; DOPA moiety 9.1 mg/kg ip, 7 hr): − −
Anti-Reserpine Activity (response) ([2]; DOPA moiety 9.1 mg/kg ip, 8 hr): − −
Anti-Reserpine Activity (response) ([2]; DOPA moiety 91 mg/kg ip, 20 min): − −
Anti-Reserpine Activity (response) ([2]; DOPA moiety 91 mg/kg ip, 2 hr): − −
Anti-Reserpine Activity (response) ([2]; DOPA moiety 91 mg/kg ip, 5 hr): − −
Anti-Reserpine Activity (response) ([2]; DOPA moiety 91 mg/kg ip, 6 hr): − −
Anti-Reserpine Activity (response) ([2]; DOPA moiety 91 mg/kg ip, 7 hr): − −
Anti-Reserpine Activity (response) ([2]; DOPA moiety 91 mg/kg ip, 8 hr): − −
Anti-Reserpine Activity (response) [2, 5]: − −
Anti-Reserpine Activity (response) ([2]; DOPA moiety 364 mg/kg ip, 2 hr): − −
Anti-Reserpine Activity (response) ([2]; DOPA moiety 364 mg/kg ip, 5 hr): − −
Anti-Reserpine Activity (response) ([2]; DOPA moiety 364 mg/kg ip, 6 hr): − −
Anti-Reserpine Activity (response) ([2]; DOPA moiety 364 mg/kg ip, 7 hr): M —
Anti-Reserpine Activity (response) ([2]; DOPA moiety 364 mg/kg ip, 8 hr): M M
Anti-Reserpine Activity (response) [2, 6]: −
Anti-Reserpine Activity (response) ([2]; DOPA moiety 637 mg/kg ip, 2 hr): −
toxic effects observed in treated catatonic mice ([2]; ip in Miglyol, active doses): did not exhibit the high activity level and toxic effects
